In US8889874B2, “Imidazolone-chalcone derivatives as potential anticancer agent and process for the preparation thereof” (Council of Scientific and Industrial Research, priority 2010, dated 2014):
Like-named read-outs stand apart in the source and are kept apart here.

Experiments:
Experiment in all cases: NCI anticancer screen, SRB assay, 48 h
Assay type in all cases: cell-based, human
[1] = system: 786-0 (renal); settings: Homo sapiens
Procedure: (§1) Some of biological activity studies were carried out at the National Cancer Institute (NCI), Maryland, USA.
(§2) The compounds were evaluated for anticancer activity against fifty three human cancer cells derived from nine cancer types (leukemia cell line, non-small-cell lung cell line, colon cell line, CNS cell line, melanoma cell line, ovarian cell line, prostate cell line, and breast cancer cell line) as shown in Table 1. For each compound, dose response curves for each cell line were measured at a minimum of five concentrations at 10 fold dilutions. A protocol of 48 h continuous drug exposure was used and a sulforhodamine B (SRB) protein assay was used to estimate cell viability or growth.

[2] = system: A498 (renal); settings: Homo sapiens
Procedure: as §1, §2

[3] = system: A549/ATCC (non-small cell lung); settings: Homo sapiens
Procedure: as §1, §2

[4] = system: ACHN (renal); settings: Homo sapiens
Procedure: as §1, §2

[5] = system: CAKI-1 (renal); settings: Homo sapiens
Procedure: as §1, §2

[6] = system: COLO 205 (colon); settings: Homo sapiens, COLO 205
Procedure: as §1, §2

[7] = system: EKVX (non-small cell lung); settings: Homo sapiens
Procedure: as §1, §2

[8] = system: HCC-2998 (colon); settings: Homo sapiens
Procedure: as §1, §2

[9] = system: HCT-15 (colon); settings: Homo sapiens
Procedure: as §1, §2

[10] = system: HOP-62 (non-small cell lung); settings: Homo sapiens
Procedure: as §1, §2

[11] = system: HOP-92 (non-small cell lung); settings: Homo sapiens
Procedure: as §1, §2

[12] = system: HS 578T (breast); settings: Homo sapiens
Procedure: as §1, §2

[13] = system: HT29 (colon); settings: Homo sapiens
Procedure: as §1, §2

[14] = system: K-562 (leukemia cell line); settings: Homo sapiens
Procedure: as §1, §2

[15] = system: KM12 (colon); settings: Homo sapiens
Procedure: as §1, §2

[16] = system: LOX IMVI (melanoma); settings: Homo sapiens
Procedure: as §1, §2

[17] = system: MALME-3M (melanoma); settings: Homo sapiens
Procedure: as §1, §2

[18] = system: MCF7 (breast); settings: Homo sapiens
Procedure: as §1, §2

[19] = system: MDA-MB-231/ATCC (breast); settings: Homo sapiens
Procedure: as §1, §2

[20] = system: MDA-MB-435 (melanoma); settings: Homo sapiens
Procedure: as §1, §2

[21] = system: NCI-H226 (non-small cell lung); settings: Homo sapiens
Procedure: as §1, §2

[22] = system: NCI-H23 (non-small cell lung); settings: Homo sapiens
Procedure: as §1, §2

[23] = system: NCI-H322M (non-small cell lung); settings: Homo sapiens
Procedure: as §1, §2

[24] = system: NCI/ADR-RES (ovarian); settings: Homo sapiens, NCI/ADR-RES
Procedure: as §1, §2

[25] = system: OVCAR-4 (ovarian); settings: Homo sapiens
Procedure: as §1, §2

[26] = system: OVCAR-5 (ovarian); settings: Homo sapiens
Procedure: as §1, §2

[27] = system: OVCAR-8 (ovarian); settings: Homo sapiens
Procedure: as §1, §2

[28] = system: PC-3 (prostate); settings: Homo sapiens
Procedure: as §1, §2

[29] = system: RPMI-8226 (leukemia cell line); settings: Homo sapiens
Procedure: as §1, §2

[30] = system: SK-MEL-5 (melanoma); settings: Homo sapiens
Procedure: as §1, §2

[31] = system: SN12C (renal); settings: Homo sapiens, SN12C
Procedure: as §1, §2

[32] = system: SNB-19 (CNS); settings: Homo sapiens
Procedure: as §1, §2

[33] = system: SNB-75 (CNS); settings: Homo sapiens
Procedure: as §1, §2

[34] = system: U251 (CNS); settings: Homo sapiens
Procedure: as §1, §2

[35] = system: UACC-257 (melanoma); settings: Homo sapiens
Procedure: as §1, §2

[36] = system: TK-10 (renal); settings: Homo sapiens
Procedure: as §1, §2

[37] = 48 h exposure, SRB, read-out: GI50
[38] = read-out: pGI50 (-log of molar concentration causing 50% inhibition of net cell growth) (converted)
[39] = COLO205, read-out: pGI50 (-log of molar concentration causing 50% inhibition of net cell growth) (converted)
[40] = HT-29, 48 h exposure, SRB, read-out: GI50
[41] = HT-29, read-out: pGI50 (-log of molar concentration causing 50% inhibition of net cell growth) (converted)
[42] = K562, 48 h exposure, SRB, read-out: GI50
[43] = K562, read-out: pGI50 (-log of molar concentration causing 50% inhibition of net cell growth) (converted)
[44] = Malme-3M, read-out: pGI50 (-log of molar concentration causing 50% inhibition of net cell growth) (converted)
[45] = MALME-3M, 48 h exposure, SRB, read-out: GI50
[46] = NCl/ADR-RES, 48 h exposure, SRB, read-out: GI50
[47] = PC-3, read-out: pGI50 (-log of molar concentration causing 50% inhibition of net cell growth) (converted)
[48] = one prostate cancer cell line (PC-3), exposure at least 48 hrs, read-out: GI50
[49] = SN 12C, read-out: pGI50 (-log of molar concentration causing 50% inhibition of net cell growth) (converted)
[50] = U-251, 48 h exposure, SRB, read-out: GI50
[51] = U-251, read-out: pGI50 (-log of molar concentration causing 50% inhibition of net cell growth) (converted)

## O=C(/C=C/c1cccc(O)c1)c1cccc(-n2cc(-c3ccccc3)[nH]c2=O)c1 [4a, 1-3-[(E)-3-(3-hydroxyphenyl)-2-propenoyl]phenyl-4-phenyl-2,3-dihydro-1H-2-imidazolone]
[1]; [37]
  GI50: 2.98 µM
[1]; [38]
  GI50: 2.95 µM
[2]; [37]
  GI50: 14.3 µM
[2]; [38]
  GI50: 14.5 µM
[3]; [37]
  GI50: 3.89 µM
[3]; [38]
  GI50: 3.89 µM
[4]; [37]
  GI50: 2.76 µM
[4]; [38]
  GI50: 2.75 µM
[5]; [37]
  GI50: 13.3 µM
[5]; [38]
  GI50: 13.2 µM
[6]; [39]
  GI50: 2 µM
[6]; [37]
  GI50: 2.01 µM
[7]; [37]
  GI50: 15.6 µM
[7]; [38]
  GI50: 15.5 µM
[8]; [37]
  GI50: 4.09 µM
[8]; [38]
  GI50: 4.07 µM
[9]; [37]
  GI50: 3.1 µM
[9]; [38]
  GI50: 3.09 µM
[10]; [37]
  GI50: 6.93 µM
[10]; [38]
  GI50: 6.92 µM
[11]; [37]
  GI50: 5.04 µM
[11]; [38]
  GI50: 5.01 µM
[12]; [37]
  GI50: 6.14 µM
[12]; [38]
  GI50: 6.17 µM
[13]; [40]
  GI50: 3.33 µM
[13]; [41]
  GI50: 3.31 µM
[14]; [42]
  GI50: 3.35 µM
[14]; [43]
  GI50: 3.39 µM
[15]; [37]
  GI50: 1.83 µM
[15]; [38]
  GI50: 1.82 µM
[16]; [37]
  GI50: 1.85 µM
[16]; [38]
  GI50: 1.86 µM
[17]; [44]
  GI50: 6.17 µM
[17]; [45]
  GI50: 6.21 µM
[18]; [37]
  GI50: 2.47 µM
[18]; [38]
  GI50: 2.45 µM
[19]; [37]
  GI50: 3.86 µM
[19]; [38]
  GI50: 3.89 µM
[20]; [37]
  GI50: 3.12 µM
[20]; [38]
  GI50: 3.09 µM
[21]; [37]
  GI50: 24.8 µM
[21]; [38]
  GI50: 24.5 µM
[22]; [37]
  GI50: 3.35 µM
[22]; [38]
  GI50: 3.39 µM
[23]; [37]
  GI50: 10.6 µM
[23]; [38]
  GI50: 10.7 µM
[24]; [46]
  GI50: 3.73 µM
[24]; [38]
  GI50: 3.72 µM
[25]; [37]
  GI50: 5.3 µM
[25]; [38]
  GI50: 5.25 µM
[26]; [37]
  GI50: 5.44 µM
[26]; [38]
  GI50: 5.5 µM
[27]; [37]
  GI50: 2.8 µM
[27]; [38]
  GI50: 2.82 µM
[28]; [47]
  GI50: 2.82 µM
[28]; [48]
  GI50: 2.82 µM
[29]; [37]
  GI50: 2.15 µM
[29]; [38]
  GI50: 2.14 µM
[30]; [37]
  GI50: 3.18 µM
[30]; [38]
  GI50: 3.16 µM
[31]; [49]
  GI50: 3.16 µM
[31]; [37]
  GI50: 3.14 µM
[32]; [37]
  GI50: 10.9 µM
[32]; [38]
  GI50: 11 µM
[33]; [37]
  GI50: 12.1 µM
[33]; [38]
  GI50: 12 µM
[34]; [50]
  GI50: 1.61 µM
[34]; [51]
  GI50: 1.62 µM
[35]; [37]
  GI50: 7.68 µM
[35]; [38]
  GI50: 7.76 µM

## O=C(/C=C/c1cccc(O)c1)c1cccc(-n2cc(-c3ccc4ccccc4c3)[nH]c2=O)c1 [12b, 1-3-[(E)-3-(3-hydroxyphenyl)-2-propenoyl]phenyl-4-(2-naphthyl)-2,3-dihydro-1H-2-imidazolone]
[1]; [37]
  GI50: 1.74 µM
[1]; [38]
  GI50: 1.74 µM
[3]; [37]
  GI50: 3.38 µM
[3]; [38]
  GI50: 3.39 µM
[4]; [37]
  GI50: 1.57 µM
[4]; [38]
  GI50: 1.58 µM
[5]; [37]
  GI50: 1.45 µM
[5]; [38]
  GI50: 1.45 µM
[6]; [39]
  GI50: 2.09 µM
[6]; [37]
  GI50: 2.09 µM
[7]; [37]
  GI50: 2.64 µM
[7]; [38]
  GI50: 2.63 µM
[8]; [37]
  GI50: 2.13 µM
[8]; [38]
  GI50: 2.14 µM
[9]; [37]
  GI50: 1.56 µM
[9]; [38]
  GI50: 1.55 µM
[10]; [37]
  GI50: 2.26 µM
[10]; [38]
  GI50: 2.24 µM
[11]; [37]
  GI50: 0.51 µM
[11]; [38]
  GI50: 0.513 µM
[12]; [37]
  GI50: 2.01 µM
[12]; [38]
  GI50: 2 µM
[13]; [40]
  GI50: 1.54 µM
[13]; [41]
  GI50: 1.55 µM
[14]; [42]
  GI50: 1.43 µM
[14]; [43]
  GI50: 1.45 µM
[15]; [37]
  GI50: 1.21 µM
[15]; [38]
  GI50: 1.2 µM
[16]; [37]
  GI50: 0.85 µM
[16]; [38]
  GI50: 0.851 µM
[17]; [44]
  GI50: 2.09 µM
[17]; [45]
  GI50: 2.08 µM
[18]; [37]
  GI50: 0.47 µM
[18]; [38]
  GI50: 0.468 µM
[19]; [37]
  GI50: 1.66 µM
[19]; [38]
  GI50: 1.66 µM
[20]; [37]
  GI50: 1.71 µM
[20]; [38]
  GI50: 1.7 µM
[21]; [37]
  GI50: 2.43 µM
[21]; [38]
  GI50: 2.45 µM
[22]; [37]
  GI50: 1.52 µM
[22]; [38]
  GI50: 1.51 µM
[23]; [37]
  GI50: 1.66 µM
[23]; [38]
  GI50: 1.66 µM
[24]; [46]
  GI50: 1.55 µM
[24]; [38]
  GI50: 1.55 µM
[25]; [37]
  GI50: 1.68 µM
[25]; [38]
  GI50: 1.7 µM
[26]; [37]
  GI50: 1.89 µM
[26]; [38]
  GI50: 1.91 µM
[27]; [37]
  GI50: 2.33 µM
[27]; [38]
  GI50: 2.34 µM
[28]; [47]
  GI50: 1.86 µM
[28]; [48]
  GI50: 1.85 µM
[29]; [37]
  GI50: 1.67 µM
[29]; [38]
  GI50: 1.66 µM
[30]; [37]
  GI50: 1.16 µM
[30]; [38]
  GI50: 1.15 µM
[31]; [49]
  GI50: 1.45 µM
[31]; [37]
  GI50: 1.44 µM
[32]; [37]
  GI50: 1.32 µM
[32]; [38]
  GI50: 1.32 µM
[33]; [37]
  GI50: 1.88 µM
[33]; [38]
  GI50: 1.86 µM
[36]; [37]
  GI50: 3.45 µM
[36]; [38]
  GI50: 3.47 µM
[34]; [50]
  GI50: 1.09 µM
[34]; [51]
  GI50: 1.1 µM
[35]; [37]
  GI50: 4.13 µM
[35]; [38]
  GI50: 4.17 µM
